Results on 5 substances are retold here after paper PMC12154031, “Screening and Validation: AI-Aided Discovery of Dipeptidyl Peptidase-4 Inhibitory Peptides from Hydrolyzed Rice Proteins” (Foods, 2025).

Where two headings read alike, the source gives them in different places. No end group written: not given here.

For test [1], the target named is T1, DPP-4 (Homo sapiens, UniProt P27487).
T1 construct: purchased Adamas (Shanghai Adamas Reagent Co., Ltd., Shanghai, China)
Nature of the test: DPP-IV-inhibitory activity, Gly-Pro-pNA substrate. Format: biochemical. The following applies: 37 °C, 15 min; for IC50: Tris–HCl 20 mM pH 8.0, substrate Gly-Pro-pNA 1 mM (50 µL), 0.05 mg/mL DPP-4 (10 µL), peptide in ddH2O, dark, absorbance 405 nm, triplicate, four-parameter logistic fit. The method, then: The assay method for measuring the peptide inhibition of DPP-4 was based on the combination of two established protocols: the peptides were dissolved in ddH2O to prepare a gradient of concentrations and the DPP-4 enzyme was diluted in Tris–HCl (20 mM, pH 8.0). In a 96-well plate, 30 µL ddH2O, 10 µL peptide solution, 50 µL substrate (1 mM), and 10 µL DPP-4 enzyme (0.05 mg/mL) were added sequentially. Each peptide concentration was tested in triplicate and incubated at 37 °C in the dark for 15 min, and then 100 µL of 0.1 M NaHCO3 solution was added to stop the reaction. The absorbance at 405 nm was measured on a microplate reader, and the percent inhibition of DPP-4 was calculated at each concentration. The IC50 values for the four peptides were determined by fitting the dose–response curves with the log peptide concentration on the x-axis and the DI (%) on the y-axis. The DPP-IV-inhibition (DI) was calculated as follows:(8) DI%=(1−A405peptide−A405buffer/A405positive control−A405negtive control)×[…] where A405 (peptide) represents the optical density (at 405 nm) of the enzyme (DPP-IV) in the presence of the substrate (Gly-Pro-p-nitroanilide) and inhibitor (inhibitory peptide); A405 (buffer) represents the optical density of ddH2O; A405 (positive reaction) represents the optical density of the enzyme and the substrate in the absence of inhibitor; and A405 (negative reaction) represents the optical density of the enzyme in the absence of the substrate and inhibitor.
Origin 2024 was used to sort out the physical and chemical property data and create heatmaps to visualize the correlation between the peptide activity, the docking energy, and the physicochemical properties. GraphPad Prism 10 was used to perform non-linear regression of the DPP-4 percent inhibition versus the log[concentration]. The differences between the IC50 values of DPP-IV were subjected to the ordinary one-way ANOVA test. A p-value < 0.05 was considered significant. Other images were created by Python 3.13.2 and Adobe Illustrator 2022. We evaluated Section 2 of the article using the TRIPOD (Transparent Reporting of a multivariable prediction model for Individual Prognosis Or Diagnosis) framework from the EQUATOR Network.

The target in test [2] is T1, DPP-4. On the set-up: method as in PMID 29963014, PMID 6427168. The following applies: known DPP-4 inhibitory peptide, positive control; ref [41],[42]; cited from earlier work.

T1 sequence (P27487 whole entry): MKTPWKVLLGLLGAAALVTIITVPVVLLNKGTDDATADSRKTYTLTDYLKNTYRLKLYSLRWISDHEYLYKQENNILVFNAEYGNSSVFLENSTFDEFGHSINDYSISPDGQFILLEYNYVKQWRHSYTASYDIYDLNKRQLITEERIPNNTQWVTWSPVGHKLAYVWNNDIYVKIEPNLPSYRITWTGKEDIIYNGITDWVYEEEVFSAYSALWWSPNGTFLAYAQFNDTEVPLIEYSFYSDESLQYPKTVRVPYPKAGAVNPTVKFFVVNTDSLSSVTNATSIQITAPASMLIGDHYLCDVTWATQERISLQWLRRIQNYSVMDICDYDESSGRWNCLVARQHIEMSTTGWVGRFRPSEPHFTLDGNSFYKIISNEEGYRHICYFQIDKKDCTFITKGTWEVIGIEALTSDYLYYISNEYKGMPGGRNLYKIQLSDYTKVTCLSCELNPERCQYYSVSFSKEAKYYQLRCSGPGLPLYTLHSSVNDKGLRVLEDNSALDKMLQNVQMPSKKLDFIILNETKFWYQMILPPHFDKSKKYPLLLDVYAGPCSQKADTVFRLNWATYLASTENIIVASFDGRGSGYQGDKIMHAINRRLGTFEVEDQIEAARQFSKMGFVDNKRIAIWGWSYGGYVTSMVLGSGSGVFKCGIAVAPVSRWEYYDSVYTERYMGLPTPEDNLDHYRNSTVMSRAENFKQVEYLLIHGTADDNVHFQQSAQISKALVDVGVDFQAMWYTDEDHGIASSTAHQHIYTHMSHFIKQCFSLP

The IC50 is the concentration that gives 50% inhibition. As for “CPPPPAAY [rice-derived proline-rich peptide, synthesized, purity of 95%]”, on DPP-4 [1], the IC50 entry is “could not be determined”. In addition, the “DPP-4 inhibition (DI%), result in words” value at DPP-4 [1] (within the tested concentration range, pH 8.0, n = 3) is “showed no inhibitory effect”.

On to Diprotin A [IPI], for which the IC50 on DPP-4 [2] is about 3.5 µM.

For the substance PPPPPPPPA [PPPPPPPPA], the IC50 on DPP-4 [1] (read-out: IC50) came to 177 ± 6 µM.

Consider PPPPPY [PPPPPY], for which, at DPP-4 [1] (read-out: IC50), the half-maximal inhibitory concentration (IC50) came to 153 ± 5.7 µM.

For PPPSPPPV [PPPSPPPV], the half-maximal inhibitory concentration (IC50) at DPP-4 [1] (read-out: IC50) worked out at 216 ± 4.5 µM.
